Measured values taken from the NIST ThermoML archive (doi:10.1016/j.jct.2007.03.004).
± gives the expanded uncertainty stated by the source.

Tests used:
[1] = Liquid; for mass density: 293.15 K, 101.33 kPa; for Normal boiling temperature: Distillation
[2] = refractive index (Na D-line) (dimensionless); details: 293.15 K; 101.33 kPa; Liquid; Standard Abbe refractometry

Row | Structure (SMILES) | mass density [1] | Normal boiling temperature [1] | refractive index [2]
1 | CCOC(=O)CCCCC(=O)OCC [diethyl hexanedioate] | 1007.63 ± 0.41 kg/m3 | 245.2 ± 0.2 °C | 1.42725 ± 0.0007
2 | CCOC(=O)CCCC(=O)OCC [diethyl glutarate] | 1022.04 ± 1.2 kg/m3 | 236.5 ± 0.2 °C | 1.42414 ± 0.00078
3 | CCOC(=O)CCC(=O)OCC [diethyl butanedioate] | 1040.22 ± 0.5 kg/m3 | 217.7 ± 0.2 °C | 1.42014 ± 0.0007
4 | CCC(=O)O [propanoic acid] | 988.04 ± 0.41 kg/m3 | 141.4 ± 0.2 °C | 1.3808 ± 0.0007
